Experimental data from US20220395464A1, “ORALLY ADMINISTERED SOLID DOSAGE FORM DRUG” (ASCENTAWITS PHARMACEUTICALS, LTD., priority 2019, published 2022).
Read-outs that look alike come from different tables or passages of the source.

Experiment: Pharmacokinetics after single intravenous drip infusion, plasma LC-MS/MS
Format: in vivo, Philippine macaques
Settings: male, plasma, 0.58 mg/kg, plasma; for AUC(0-t) / AUC(0-inf) / clearance / Cmax / half-life / Vd / MRT last / MRT inf / Tmax: cynomolgus monkey, iv, AST-3424 0.58 mg/kg single intravenous infusion; for Tmax: read-out: Tmax, Mean
Description: AST-3424 and AST-3424-D6 (i.e. the compound of formula I) were administered to Philippine macaques by intravenous drip infusion, and blood samples were collected at different appointed times. LC-MS/MS was used to determine concentrations of the test substances in plasma of the Philippine macaques after administration, and relevant pharmacokinetic parameters were calculated.
Preparation method: 0.447 ml of AST-3424 (0.2 mg/ml) and 0.481 ml of AST-3424-D6 (0.2 mg/ml) were added into 104.272 ml of the dissolvent, respectively, and mixed for 5 minutes to obtain colorless and clarified solutions with pH 7.0.
The four male Philippine macaques were purchased from Guangxi Xiongsen Primate Development Experiment Co., Ltd. All Philippine macaques were healthy with qualified medical examination and no abnormality. Three of animals were used for the experiment, and one of them was used to prepare blank plasma.
About 0.8 ml of blood samples were collected through femoral vein and anticoagulated with heparin sodium. Appointed times of blood collection were before administration, 0.17, 0.25, 0.5, 0.75, 1, 2, and 4 hours after administration.
The blood samples were placed on ice after collection. Next, plasma samples were separated by centrifugation, and centrifugation conditions were 3500 rpm for 10 minutes at 4° C. Then, the collected plasma samples were stored at −80° C. until analysis. The plasma samples were analyzed by LC-MS/MS by an analysis department of an experimental institution. Besides, Lower limit of quantifications (LLOQ) of AST-3424 and AST-3424-D6 detection were 1 ng/ml. The accuracy of analysis results of an accompanying standard curve and a quality control samples all met the relevant requirements of biological analysis (the accuracy of the quality control samples exceeding 66.7% was between 85˜115%) in a process of the sample detection.
According to average blood concentration data of each group at each appointed time, the pharmacokinetic parameters of the compounds were respectively computed by a pharmacokinetic computing software, a non-compartmental model. In addition, the pharmacokinetic parameters were AUC0-t, AUC0-∞, MRT0-∞, Cmax, Tmax, t1/2, etc. In the case of the concentrations of the samples whose concentration being lower than a lower limit of quantification, the following schemes were used to compute the pharmacokinetic parameters. The samples sampled before reaching Cmax shall be computed as zero value, while the samples sampled after reaching Cmax shall be computed as non-quantifiable (marked as “BLQ”).
After a single intravenous infusion of the compounds AST-3424 and AST-3424-D6 was administered to the Philippine macaques, the whole blood samples of the corresponding animals were collected at the appointed times. Next, the whole blood samples were processed and biologically analyzed to obtain concentrations of the compounds in the plasma at the different appointed times. Results of the assay were listed in Table 14 below, and corresponding means of the plasma-drug concentration-time curves are shown in FIG. 3.
According to the plasma-drug concentration data of each drug group, the pharmacokinetic parameters of each compound group were computed using the non-compartmental model of the pharmacokinetic computing software. The pharmacokinetic

[1] = Philippine macaque, intravenous, AST-3424 intravenous drip infusion 0.58 mg/kg, individual animals 101, 102, 103, read-out: Plasma-drug concentration
[2] = Philippine macaque, intravenous, AST-3424 intravenous drip infusion 0.58 mg/kg, read-out: Plasma-drug concentration, mean

C[C@H](OP(=O)(N1CC1)N1CC1)c1ccc([N+](=O)[O-])c(Oc2cccc(C(=O)N(C)C)c2)c1 [AST-3424, (S)-1-(3-(3-N,N-Dimethylaminocarbonyl)phenoxy-4-nitrophenyl)-1-ethyl-N,N′-bis(ethylene) phosphoramidate]
AUC(0-t) (Philippine macaque, individual animals 101, 102, 103, read-out: AUC(0−t)): 404 ng·h/mL | AUC(0-inf) (Philippine macaque, individual animals 101, 102, 103, read-out: AUC(0−∞)): 409 ng·h/mL | clearance (Philippine macaque, individual animals 101, 102, 103, read-out: Cl (converted)): 23.6 mL/min/kg | Cmax (Philippine macaque, individual animals 101, 102, 103, read-out: Cmax): 696 ng/mL | half-life (Philippine macaque, individual animals 101, 102, 103, read-out: T1/2 (converted)): 6.6 min | Vd (Philippine macaque, individual animals 101, 102, 103, read-out: Vss): 0.202 L/kg | Vd (Philippine macaque, individual animals 101, 102, 103, read-out: Vz): 0.231 L/kg | AUC(0-t) (Philippine macaque, read-out: AUC(0−t), Mean): 436 ± 35.6 ng·h/mL | AUC(0-inf) (Philippine macaque, read-out: AUC(0−∞), Mean): 438 ± 33.5 ng·h/mL | clearance (Philippine macaque, read-out: Cl, Mean (converted)): 22.1 mL/min/kg | Cmax (Philippine macaque, read-out: Cmax, Mean): 725 ± 66.6 ng/mL | MRT last (Philippine macaque, read-out: MRT(0−t), Mean): 10.2 ± 1.8 min | MRT inf (Philippine macaque, read-out: MRT(0−∞), Mean): 10.2 ± 1.8 min | half-life (Philippine macaque, read-out: T1/2, Mean (converted)): 9.6 min | Tmax (Philippine macaque): 18.6 min | Vd (Philippine macaque, read-out: Vz, Mean): 0.306 L/kg | concentration at 0.17 hr [1]: 638 ng/mL | concentration at 0.17 hr [2]: 708 ng/mL | concentration at 0.25 h [1]: 649 ng/mL | concentration at 0.25 h [2]: 691 ng/mL | concentration at 0.5 h [1]: 677 ng/mL | concentration at 0.5 h [2]: 695 ng/mL | concentration at 0.75 h [1]: 152 ng/mL | concentration at 0.75 h [2]: 143 ng/mL | concentration at 1 h [1]: 57.3 ng/mL | concentration at 1 h [2]: 46.6 ng/mL | concentration at 2 h (Philippine macaque, intravenous, AST-3424 intravenous drip infusion 0.58 mg/kg, 2 hr, individual animals 101, 102, 103, LLOQ 1 ng/ml, read-out: Plasma-drug concentration): 1.29 ng/mL | concentration at 2 hr (Philippine macaque, intravenous, AST-3424 intravenous drip infusion 0.58 mg/kg, 2 hr, read-out: Plasma-drug concentration, mean): 1.4 ng/mL | MRT last (individual animals 101, 102, 103, read-out: MRT(0−t)): 7.8 min | MRT inf (individual animals 101, 102, 103, read-out: MRT(0−∞)): 8.4 min | Tmax: 18.4 min | Vd (read-out: Vss, Mean): 0.226 L/kg
